Measured values reported in patent US10351552B2, “Bicyclic antiparasitic compounds” (MediSynergies, LLC, priority 2017, dated 2019).
pIC50: −log10 of the molar value.

Test system: T. brucei brucei clone 427-221a (bloodstream forms)
Experiment: T. brucei brucei growth inhibition assay
Type: cell-based
Conditions: Trypanosoma brucei, 40 hours at 37° C., CellTiter-Glo ATP-bioluminescence
Method: The growth inhibition assay for T. brucei brucei was conducted as described previously by Z. B. Mackey, et al (Kenny K. H. Ang, Joseline Ratnam, Jiri Gut, Jennifer Legac, Elizabeth Hansell, Zachary B. Mackey, Katarzyna M. Skrzypczynska, Anjan Debnath, Juan C. Engel, Philip J. Rosenthal, James H. McKerrow, Michelle R. Arkin, Adam R. Renslo (2011) “Mining a Cathepsin Inhibitor Library for New Antiparasitic Drug Leads”, PLoS Neglected Tropical Diseases, 5(5):e1023). Bloodstream forms of the monomorphic T. brucei brucei clone 427-221a were grown in complete HMI-9 medium containing 10% FBS, 10% Serum Plus medium (Sigma Inc., St. Louis, Mo., USA), 50 U/mL penicillin and […] (Invitrogen) at 37° C. under a humidified atmosphere and 5% CO2. Inhibitor stocks were prepared in 100% DMSO and screened at […] for percent inhibition values or serially diluted from […] in 10% DMSO for IC50 determinations. […] of diluted parasites ([…]) in sterile Greiner 96-well flat white opaque culture plates such that the final DMSO concentration was 0.5%. The 0% inhibition control wells contained 0.5% DMSO while 100% inhibition control wells contained 50 mM thimerosal (Sigma). After compound addition, plates were incubated for 40 hours at 37° C. At the end of the incubation period, […] of CellTiter-Glo™ reagent (Promega Inc., Madison, Wis., USA) was added to each well and plates were placed on an orbital shaker at room temperature for 2 min to induce lysis. After an additional 10 min of incubation without shaking to stabilize the signal, the ATP-bioluminescence of each well was determined using an Analyst HT plate reader (Molecular Devices, Sunnyvale, Calif., USA). Raw values were converted to log 10 and percentage inhibition calculated relative to the controls. IC50 curve fittings were performed with Prism 4 software as above. Pentamidine was used as a comparator in the assay.

Compound | pIC50
CN(C)CCCC1(c2ccc(F)cc2)OCc2cc(-c3cccc4[nH]ccc34)ccc21 (stereo not shown) [Example 1, 3-[1-(4-fluorophenyl)-5-(1H-indol-4-yl)-1,3-dihydro-2-benzofuran-1-yl]-N,N-dimethylpropan-1-amine] | 5.82
CN(C)CCCC1(c2ccc(F)cc2)OCc2cc(-c3ccc4ocnc4c3)ccc21 (stereo not shown) [Example 2, 3-[1-(4-flurophenyl)-5-(1,3-benzoxazol-5-yl)-1,3-dihydro-2-benzofuran-1-yl]-N,N-dimethylpropan-1-amine] | 6.39
CN(C)CCCC1(c2ccc(F)cc2)OCc2cc(-c3ccc4scnc4c3)ccc21 (stereo not shown) [Example 3, 3-[1-(4-fluorophenyl)-5-(1,3-benzothiazol-5-yl)-1,3-dihydro-2-benzofuran-1-yl]-N,N-dimethylpropan-1-amine] | 5.92
CN(C)CCCC1(c2ccc(F)cc2)OCc2cc(-c3cc4ccccc4s3)ccc21 (stereo not shown) [Example 4] | 6.29
CN(C)CCCC1(c2ccc(F)cc2)OCc2cc(-c3cncc4ccccc34)ccc21 (stereo not shown) [Example 7, 3-[1-(4-fluorophenyl)]-[5-(isoquinolin-4-yl)-1,3-dihydro-2-benzofuran-1-yl]-N,N-dimethylpropan-1-amine] | 6.00

Continued by rising pIC50, values first:

pIC50 | Compound
5.52 | CN(C)CCCC1(c2ccc(F)cc2)OCc2cc(-c3cnc4ccccc4c3)ccc21 (stereo not shown) [Example 6, 3-[1-(4-fluorophenyl)]-[5-(quinolin-3-yl)-1,3-dihydro-2-benzofuran-1-yl]-N,N-dimethylpropan-1-amine]
6.96 | Cc1ccc2oc(-c3ccc4c(c3)COC4(CCCN(C)C)c3ccc(F)cc3)nc2c1 (stereo not shown) [Example 8, 3-[1-(4-fluorophenyl)-5-(5-methyl-1,3-benzoxazol-2-yl)-1,3-dihydro-2-benzofuran-1-yl]-N,N-dimethylpropan-1-amine]
